What was measured:
KM 12 = assay: NCI-60 anticancer screening (SRB); type: cell-based; details: Homo sapiens, KM12; for inhibition at 10 µM: KM 12, colon cancer, one dose 10 μM, read-out: Growth Inhibition Percentage (GI %)
COLO 205 = assay: NCI-60 anticancer screening (SRB); type: cell-based; details: Homo sapiens; for inhibition at 10 µM: COLO 205, colon cancer, one dose 10 μM, read-out: Growth Inhibition Percentage (GI %)
MALME-3M = assay: NCI-60 anticancer screening (SRB); type: cell-based; details: Homo sapiens; for inhibition at 10 µM: melanoma, one dose 10 μM, read-out: Growth Inhibition Percentage (GI %)
OVCAR-8 = assay: NCI-60 anticancer screening (SRB); type: cell-based; details: Homo sapiens; for inhibition at 10 µM: OVCAR-8, ovarian cancer, one dose 10 μM, read-out: Growth Inhibition Percentage (GI %)
NCI-H226 = assay: NCI-60 anticancer screening (SRB); type: cell-based; details: Homo sapiens; for inhibition at 10 µM: NCI-H226, NSC lung cancer, one dose 10 μM, read-out: Growth Inhibition Percentage (GI %)
OVCAR-3 = assay: NCI-60 anticancer screening (SRB); type: cell-based; details: Homo sapiens; for inhibition at 10 µM: OVCAR-3, ovarian cancer, one dose 10 μM, read-out: Growth Inhibition Percentage (GI %)
MDA-MB-468 = assay: NCI-60 anticancer screening (SRB); type: cell-based; details: Homo sapiens; for inhibition at 10 µM: MDA-MB-468, breast cancer, one dose 10 μM, read-out: Growth Inhibition Percentage (GI %)
MOLT-4 = assay: NCI-60 anticancer screening (SRB); type: cell-based; details: Homo sapiens; for inhibition at 10 µM: MOLT-4, leukemia, one dose 10 μM, read-out: Growth Inhibition Percentage (GI %)
HCT-15 = assay: NCI-60 anticancer screening (SRB); type: cell-based; details: Homo sapiens; for inhibition at 10 µM: HCT-15, colon cancer, one dose 10 μM, read-out: Growth Inhibition Percentage (GI %)
HOP-62 = assay: NCI-60 anticancer screening (SRB); type: cell-based; details: Homo sapiens; for inhibition at 10 µM: HOP-62, NSC lung cancer, one dose 10 μM, read-out: Growth Inhibition Percentage (GI %)
NCI/ADR-RES = assay: NCI-60 anticancer screening (SRB); type: cell-based; details: Homo sapiens, ovarian cancer, one dose 10 μM, read-out: Growth Inhibition Percentage (GI %)
U251 = assay: NCI-60 anticancer screening (SRB); type: cell-based; details: Homo sapiens, U-251; for inhibition at 10 µM: U251, CNS cancer, one dose 10 μM, read-out: Growth Inhibition Percentage (GI %)
NCI-H322M = assay: NCI-60 anticancer screening (SRB); type: cell-based; details: Homo sapiens; for inhibition at 10 µM: NSC lung cancer, one dose 10 μM, read-out: Growth Inhibition Percentage (GI %)
MDA-MB-231 = assay: NCI-60 anticancer screening (SRB); type: cell-based; details: Homo sapiens; for inhibition at 10 µM: MDA-MB-231, breast cancer, one dose 10 μM, read-out: Growth Inhibition Percentage (GI %)
A549/ATCC = assay: NCI-60 anticancer screening (SRB); type: cell-based; details: Homo sapiens; for inhibition at 10 µM: A549/ATCC, NSC lung cancer, one dose 10 μM, read-out: Growth Inhibition Percentage (GI %)
NCI-H522 = assay: NCI-60 anticancer screening (SRB); type: cell-based; details: Homo sapiens; for inhibition at 10 µM: NCI-H522, NSC lung cancer, one dose 10 μM, read-out: Growth Inhibition Percentage (GI %)
OVCAR-5 = assay: NCI-60 anticancer screening (SRB); type: cell-based; details: Homo sapiens; for inhibition at 10 µM: OVCAR-5, ovarian cancer, one dose 10 μM, read-out: Growth Inhibition Percentage (GI %)
CAKI-1 = assay: NCI-60 anticancer screening (SRB); type: cell-based; details: Homo sapiens; for inhibition at 10 µM: CAKI-1, renal cancer, one dose 10 μM, read-out: Growth Inhibition Percentage (GI %)
SNB-19 = assay: NCI-60 anticancer screening (SRB); type: cell-based; details: Homo sapiens; for inhibition at 10 µM: SNB-19, CNS cancer, one dose 10 μM, read-out: Growth Inhibition Percentage (GI %)
HCC-2998 = assay: NCI-60 anticancer screening (SRB); type: cell-based; details: Homo sapiens; for inhibition at 10 µM: HCC-2998, colon cancer, one dose 10 μM, read-out: Growth Inhibition Percentage (GI %)
SNB-75 = assay: NCI-60 anticancer screening (SRB); type: cell-based; details: Homo sapiens; for inhibition at 10 µM: SNB-75, CNS cancer, one dose 10 μM, read-out: Growth Inhibition Percentage (GI %)
EKVX = assay: NCI-60 anticancer screening (SRB); type: cell-based; details: Homo sapiens; for inhibition at 10 µM: NSC lung cancer, one dose 10 μM, read-out: Growth Inhibition Percentage (GI %)
UACC-257 = assay: NCI-60 anticancer screening (SRB); type: cell-based; details: Homo sapiens; for inhibition at 10 µM: UACC-257, melanoma, one dose 10 μM, read-out: Growth Inhibition Percentage (GI %)
UO-31 = assay: NCI-60 anticancer screening (SRB); type: cell-based; details: Homo sapiens; for inhibition at 10 µM: UO-31, renal cancer, one dose 10 μM, read-out: Growth Inhibition Percentage (GI %)
BT-549 = assay: NCI-60 anticancer screening (SRB); type: cell-based; details: Homo sapiens; for inhibition at 10 µM: BT-549, breast cancer, one dose 10 μM, read-out: Growth Inhibition Percentage (GI %)
DU-145 = assay: NCI-60 anticancer screening (SRB); type: cell-based; details: Homo sapiens; for inhibition at 10 µM: DU-145, prostate cancer, one dose 10 μM, read-out: Growth Inhibition Percentage (GI %)
SK-MEL-2 = assay: NCI-60 anticancer screening (SRB); type: cell-based; details: Homo sapiens; for inhibition at 10 µM: SK-MEL-2, melanoma, one dose 10 μM, read-out: Growth Inhibition Percentage (GI %)
HL-60(TB) = assay: NCI-60 anticancer screening (SRB); type: cell-based; details: Homo sapiens; for inhibition at 10 µM: leukemia, one dose 10 μM, read-out: Growth Inhibition Percentage (GI %)
786-0 = assay: NCI-60 anticancer screening (SRB); type: cell-based; details: Homo sapiens; for inhibition at 10 µM: 786-0, renal cancer, one dose 10 μM, read-out: Growth Inhibition Percentage (GI %)
IGROV1 = assay: NCI-60 anticancer screening (SRB); type: cell-based; details: Homo sapiens, IGROV-1; for inhibition at 10 µM: IGROV1, ovarian cancer, one dose 10 μM, read-out: Growth Inhibition Percentage (GI %)
MDA-MB-435 = assay: NCI-60 anticancer screening (SRB); type: cell-based; details: Homo sapiens; for inhibition at 10 µM: MDA-MB-435, melanoma, one dose 10 μM, read-out: Growth Inhibition Percentage (GI %)
NCI 60 cancer cell lines = assay: NCI-60 anticancer screening (SRB), whole panel; type: cell-based, human

CCOC(=O)C1=C(N)N(c2ccc(C)cc2)C2=C(C(=O)CC(C)(C)C2)C1c1ccc(Cl)cc1 (racemic) [8d, (±)-Ethyl 2-amino-4–(4-chlorophenyl)-7,7-dimethyl-1–(4-methylphenyl)-5-oxo-1,4,5,6,7,8-hexahydroquinoline-3-carboxylate]
inhibition at 10 µM (KM 12): < 10%
inhibition at 10 µM (COLO 205): 23%
inhibition at 10 µM (MALME-3M): < 10%
inhibition at 10 µM (OVCAR-8): 13%
inhibition at 10 µM (NCI-H226): < 10%
inhibition at 10 µM (OVCAR-3): 16%
inhibition at 10 µM (MDA-MB-468): 18%
inhibition at 10 µM (MOLT-4): < 10%
inhibition at 10 µM (HCT-15): 35%
inhibition at 10 µM (HOP-62): < 10%
inhibition at 10 µM (NCI/ADR-RES): < 10%
inhibition at 10 µM (U251): < 10%
inhibition at 10 µM (NCI-H322M): < 10%
inhibition at 10 µM (MDA-MB-231): < 10%
inhibition at 10 µM (A549/ATCC): 14%
inhibition at 10 µM (NCI-H522): 15%
inhibition at 10 µM (OVCAR-5): < 10%
inhibition at 10 µM (CAKI-1): 30%
inhibition at 10 µM (SNB-19): < 10%
inhibition at 10 µM (HCC-2998): < 10%
inhibition at 10 µM (SNB-75): 35%
inhibition at 10 µM (EKVX): 15%
inhibition at 10 µM (UACC-257): < 10%
inhibition at 10 µM (UO-31): 16%
melting point: 205 to 207 °C
inhibition at 10 µM (BT-549): < 10%
inhibition at 10 µM (DU-145): < 10%
inhibition at 10 µM (SK-MEL-2): < 10%
inhibition at 10 µM (HL-60(TB)): 21%
inhibition at 10 µM (786-0): < 10%
inhibition at 10 µM (IGROV1): < 10%
inhibition at 10 µM (MDA-MB-435): < 10%

CCOC(=O)C1=C(N)N(c2ccccc2)C2=C(C(=O)CC(C)(C)C2)C1c1ccc(Cl)cc1Cl (racemic) [10c, (±)-Ethyl 2-amino-4–(2,4-dichlorophenyl)-7,7-dimethyl-5-oxo-1-phenyl-1,4,5,6,7,8-hexahydroquinoline-3-carboxylate]
inhibition at 10 µM (KM 12): 81%
GI50 (KM 12; KM-12, five doses 0.01-100 µM, 48 h): 2.36 µM
inhibition at 10 µM (COLO 205): 91%
GI50 (COLO 205; COLO-205, five doses 0.01-100 µM, 48 h): 2.06 µM
GI50 (MALME-3M; five doses 0.01-100 µM, 48 h): 2.93 µM
inhibition at 10 µM (MALME-3M): 72%
inhibition at 10 µM (OVCAR-8): 63%
GI50 (OVCAR-8; OVCAR-8, five doses 0.01-100 µM, 48 h): 3.72 µM
inhibition at 10 µM (NCI-H226): 76%
GI50 (NCI-H226; NCI-H226, five doses 0.01-100 µM, 48 h): 2.34 µM
inhibition at 10 µM (OVCAR-3): 67%
GI50 (OVCAR-3; OVCAR-3, five doses 0.01-100 µM, 48 h): 2.62 µM
inhibition at 10 µM (MDA-MB-468): 96%
GI50 (MDA-MB-468; MDA-MB-468, five doses 0.01-100 µM, 48 h): 6.83 µM
inhibition at 10 µM (MOLT-4): 93%
GI50 (MOLT-4; MOLT-4, five doses 0.01-100 µM, 48 h): 9.56 µM
inhibition at 10 µM (HCT-15): 86%
GI50 (HCT-15; HCT-15, five doses 0.01-100 µM, 48 h): 1.52 µM
inhibition at 10 µM (HOP-62): 49%
GI50 (HOP-62; HOP-62, five doses 0.01-100 µM, 48 h): 4.88 µM
inhibition at 10 µM (NCI/ADR-RES): 76%
inhibition at 10 µM (U251): 72%
GI50 (U251; U251, five doses 0.01-100 µM, 48 h): 2.46 µM
GI50 (NCI-H322M; NCI-H322-M, five doses 0.01-100 µM, 48 h): 7.71 µM
inhibition at 10 µM (NCI-H322M): 43%
inhibition at 10 µM (MDA-MB-231): 75%
GI50 (MDA-MB-231; MDA-MB-231, five doses 0.01-100 µM, 48 h): 3.34 µM
inhibition at 10 µM (A549/ATCC): 73%
GI50 (A549/ATCC; A549, five doses 0.01-100 µM, 48 h): 1.88 µM
inhibition at 10 µM (NCI-H522): 65%
GI50 (NCI-H522; NCI-H522, five doses 0.01-100 µM, 48 h): 2.22 µM
inhibition at 10 µM (OVCAR-5): 43%
GI50 (OVCAR-5; OVCAR-5, five doses 0.01-100 µM, 48 h): 7.26 µM
inhibition at 10 µM (CAKI-1): 77%
GI50 (CAKI-1; CAKI-1, five doses 0.01-100 µM, 48 h): 6.82 µM
inhibition at 10 µM (SNB-19): 72%
GI50 (SNB-19; SNB-19, five doses 0.01-100 µM, 48 h): 2.92 µM
inhibition at 10 µM (HCC-2998): 62%
GI50 (HCC-2998; HCC-2998, five doses 0.01-100 µM, 48 h): 2.77 µM
inhibition at 10 µM (SNB-75): 59%
GI50 (SNB-75; SNB-75, five doses 0.01-100 µM, 48 h): 5.33 µM
inhibition at 10 µM (EKVX): 81%
GI50 (EKVX; five doses 0.01-100 µM, 48 h): 2.62 µM
inhibition at 10 µM (UACC-257): 65%
GI50 (UACC-257; UACC-257, five doses 0.01-100 µM, 48 h): 2.88 µM
inhibition at 10 µM (UO-31): 83%
GI50 (UO-31; UO-31, five doses 0.01-100 µM, 48 h): 1.15 µM
inhibition at 10 µM (BT-549): 67%
GI50 (BT-549; BT-549, five doses 0.01-100 µM, 48 h): 4.58 µM
inhibition at 10 µM (DU-145): 54%
GI50 (DU-145; DU-145, five doses 0.01-100 µM, 48 h): 6.71 µM
inhibition at 10 µM (SK-MEL-2): 112%
GI50 (SK-MEL-2; SK-MEL-2, five doses 0.01-100 µM, 48 h): 1.7 µM
GI50 (HL-60(TB); five doses 0.01-100 µM, 48 h): 5.95 µM
inhibition at 10 µM (HL-60(TB)): 99%
inhibition at 10 µM (786-0): 66%
GI50 (786-0; 786-0, five doses 0.01-100 µM, 48 h): 4.24 µM
LC50 (50% lethal concentration) (NCI 60 cancer cell lines; Homo sapiens, 60 cell, five doses, read-out: LC50 values towards 60 cell lines): > 100 µM
GI50 (NCI 60 cancer cell lines; Homo sapiens, five doses 0.01-100 µM, 48 h, read-out: GI50 range against nearly all the tested cell lines): 1.04 to 9.56 µM
GI % mean (NCI 60 cancer cell lines; mean across the NCI-60 panel, one dose 10 μM): 74%
inhibition at 10 µM (IGROV1): 41%
GI50 (IGROV1; IGROV1, five doses 0.01-100 µM, 48 h): 7.97 µM
inhibition at 10 µM (MDA-MB-435): 71%
GI50 (MDA-MB-435; MDA-MB-435, five doses 0.01-100 µM, 48 h): 3.21 µM
